The values that follow are results of earlier work, collected in patent publication US5635503A, “Dihydropyridine npy antagonists: piperazine derivatives” (Bristol-Myers Squibb Company, priority 1995, dated 1997).

Data set [1] relates to rat femoral artery.
Data set [2] deals with vasoconstrictive activity of the NPY1 agonist [Leu31, Pro34]NPY.
For data set [3], the target named is T1, Y2 receptor (Rattus norvegicus, UniProt Q9ERC0).
T1 sequence (Q9ERC0 1-381): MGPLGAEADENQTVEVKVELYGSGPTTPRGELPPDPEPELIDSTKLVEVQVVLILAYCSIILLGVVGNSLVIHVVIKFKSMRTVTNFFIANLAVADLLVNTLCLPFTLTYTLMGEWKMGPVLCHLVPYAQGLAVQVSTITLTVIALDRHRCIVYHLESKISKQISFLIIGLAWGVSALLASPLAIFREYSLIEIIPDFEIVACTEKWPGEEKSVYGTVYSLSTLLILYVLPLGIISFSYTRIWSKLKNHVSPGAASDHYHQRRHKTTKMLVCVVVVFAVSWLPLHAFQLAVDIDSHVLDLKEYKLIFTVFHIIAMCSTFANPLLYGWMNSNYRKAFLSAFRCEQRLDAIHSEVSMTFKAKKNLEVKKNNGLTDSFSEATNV
As to conditions: functional selectivity for the Y2 receptor.

The test system of data set [4] is NPY-related increases in diastolic blood pressure. As to conditions: anesthetized guinea pig model.

Regarding `N=C(N)N(CCCCCCNCc1ccc2ccccc2c1)CCCCCCN(CCCCCCNCc1ccc2ccccc2c1)C(=N)N` [Example 6b], the functional antagonism entry in data set [1] is on record as “display functional antagonism”. Further, the “effect on vasoconstrictive activity of the NPY1 agonist [Leu31, Pro34]NPY” value in data set [2] is reported as “had no effect”. In addition, the “effect on the NPY2 agonist NPY13-36” value in data set [3] is reported as “antagonized the effect”.
As to `CN(C)CC1CCC(CNC(=N)c2ccc(CC(NC(=O)C(Cc3ccccc3)NS(=O)(=O)c3ccc4ccccc4c3)C(=O)N3CCCC3)cc2)CC1` (stereo not shown) [SR 120819A], the “antagonism of NPY-related increases in diastolic blood pressure” value in data set [4] is listed as “antagonized”.
